From patent EP4206196A1, “PYRIMIDINE SUBSTITUTED DERIVATIVES AS TYK2 INHIBITORS” (Almirall S.A., priority 2021, dated 2023)

Columns and labels:
[1] = system: STAT1/3 through TYK2/JAK1; assay: IFNa induced STAT phosphorylation in HEK293 cells (SIE-bla reporter gene); assay type: cell-based; details: Homo sapiens, HEK293; HEK293T-sie-bla cells, IFNa at EC80, 4 hours; read-out: Inhibition of IFNa induced STAT phosphorylation HEK293 cells IC50
Protocol: Stimulation of HEK293T-sie-bla cells with interferon alpha (INFa) activates the signaling pathway of STAT1/3 through TYK2/JAK1. In this assay, measurement of the activity of the reporter gene […]-lactamase expression was used as the readout.
CellSensorTM SIE-bla HEK293T cell line were purchased from Thermo Fisher Scientific (ref. #K1649B) and cultured as specified by the provider. A number of 30.000 cells per well (40 µl) were plated in a 384-well plate (Corning ref.# 3712) and cultured overnight at 37°C with 5% CO2 in a complete Optimem media (ThermoFisher ref. #11058-021) containing 0.5% (v/v) heat inactivated dialyzed FBS (Life Technologies ref. #26400044), 10 µM non-essential aminoacids NEAA (Sigma ref. #M7145), 100 µM Sodium Pyruvate (Gibco ref. #11360-039) and 100 U/mL Penicillin (Sigma ref. #P0781). Compounds were initially dissolved in 100% DMSO. Compound curves were then prepared using a 1/5 serial dilution (10 dilutions). The dilutions were directly diluted in complete Optimem media at 40-fold their final concentration in 20% DMSO. IFNa initial solution (R&D systems ref. #11100-1) was prepared at 10-fold its EC80 in complete Optimem media. Compounds and IFNa were added simultaneously to the wells with cells and incubated during 4 hours at 37°C (the final DMSO was 0.1%). The […]-lactamase substrate (LifeTechnologies ref.#K1138) was prepared at 6-fold its final concentration as specified by the provider. Then 10 µL of the mixture was added to the wells to stop the stimulation. Plate was left in the dark over-night. Then a FRET reading was performed on an appropriate plate reader.
All experiments were analysed using an ExcelFit template and the four-parameter log equation. […] TABLE 2: IC50 Inhibitions of IFNa induced STAT phosphorylation in HEK293 cells

[2] = molecular target: T1, TYK2 (JH2domain-pseudokinase) (Homo sapiens, UniProt P29597); assay: TYK2 JH2 domain binding assay (KINOMEscan)
T1 construct: TYK2 (JH2domain-pseudokinase)-tagged T7 phage strains were prepared in an E. coli host derived from the BL21 strain; made in house; host or cells: E. coli BL21-derived host (T7 phage) or HEK-293 cells
Protocol: TYK2 (JH2domain-pseudokinase) KINOMEscan assay. For the assay, TYK2 (JH2domain-pseudokinase)-tagged T7 phage strains were prepared in an E. coli host derived from the BL21 strain.E. coli were grown to log-phase and infected with T7 phage and incubated with shaking at 32°C until lysis. The lysates were centrifuged and filtered to remove cell debris. The remaining TYK2 (JH2domain-pseudokinase) were produced in HEK-293 cells and subsequently tagged with DNA for qPCR detection. Streptavidin-coated magnetic beads were treated with biotinylated small molecule ligands for 30 minutes at room temperature to generate affinity resins for kinase assays. The liganded beads were blocked with excess biotin and washed with blocking buffer (SeaBlock (Pierce), 1% BSA, 0.05% Tween 20, 1 mM DTT) to remove unbound ligand and to reduce non-specific binding. Binding reactions were assembled by combining TYK2 (JH2domain-pseudokinase), liganded affinity beads, and test compounds in 1x binding buffer (20% SeaBlock, 0.17x PBS, 0.05% Tween 20, 6 mM DTT). Test compounds were prepared as 111X stocks in 100% DMSO. Kds were determined using an 11-point 3-fold compound dilution series with three DMSO control points. All compounds for Kd measurements are distributed by acoustic transfer (non-contact dispensing) in 100% DMSO. The compounds were then diluted directly into the assays such that the final concentration of DMSO was 0.9%. All reactions performed in polypropylene 384-well plate. Each was a final volume of 0.02 ml. The assay plates were incubated at room temperature with shaking for 1 hour and the affinity beads were washed with wash buffer (1x PBS, 0.05% Tween 20). The beads were then re-suspended in elution buffer (1x PBS, 0.05% Tween 20, 0.5 µM non-biotinylated affinity ligand) and incubated at room temperature with shaking for 30 minutes. The kinase concentration in the eluates was measured by qPCR. […]
An 11-point 3-fold serial dilution of each test compound was prepared in 100% DMSO at 100x final test concentration and subsequently diluted to 1x in the assay (final DMSO concentration = 1%). Most Kds were determined using a compound top concentration = 30,000 nM. If the initial Kd determined was < 0.5 nM (the lowest concentration tested), the measurement was repeated with a serial dilution starting at a lower top concentration.
Curves were fitted using a non-linear least square fit with the Levenberg-Marquardt algorithm. […] TABLE 1: Kd Affinities for Tyk2 JH2 Domain Binding Assay.

T1 sequence (P29597 589-875 limits assumed): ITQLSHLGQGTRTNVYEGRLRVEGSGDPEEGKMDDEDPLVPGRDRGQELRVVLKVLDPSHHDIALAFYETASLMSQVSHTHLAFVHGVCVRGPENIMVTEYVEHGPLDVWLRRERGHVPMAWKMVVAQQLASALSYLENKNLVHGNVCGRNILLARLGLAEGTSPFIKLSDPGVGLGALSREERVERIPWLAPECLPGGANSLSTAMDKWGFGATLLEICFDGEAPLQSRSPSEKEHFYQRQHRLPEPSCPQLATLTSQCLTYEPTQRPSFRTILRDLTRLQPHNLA

Row | SMILES | IC50 [1] [nM] | Kd [2] [nM]
1 | COCCn1cnc(-c2cccc(Nc3cc(Nc4cc(C)nc(C)n4)ncn3)c2OC)n1 [Example 44, N6-(2,6-dimethylpyrimidin-4-yl)-N4-[2-methoxy-3-[1-(2-methoxyethyl)-1,2,4-triazol-3-yl]phenyl]pyrimidine-4,6-diamine] | 10 to 100 | 0.2 to 1
2 | CCn1cnc(-c2cccc(Nc3cc(Nc4cc(C)nc(C)n4)ncn3)c2OC)n1 [Example 46, N4-(2,6-dimethylpyrimidin-4-yl)-N6-[3-(1-ethyl-1,2,4-triazol-3-yl)-2-methoxy-phenyl]pyrimidine-4,6-diamine] | 10 to 100 | < 0.2
3 | COc1c(Nc2cc(Nc3cc(C)nc(C)n3)ncn2)cccc1-c1nc(C)n(C2COC2)n1 [Example 49, N4-(2,6-dimethylpyrimidin-4-yl)-N6-[2-methoxy-3-[5-methyl-1-(oxetan-3-yl)-1,2,4-triazol-3-yl]phenyl]pyrimidine-4,6-diamine] | > 1000 | 0.2 to 1
4 | COc1c(Nc2cc(Nc3cc(C)nc(C)n3)ncn2)cccc1-c1ncn(CC2CCOCC2)n1 [Example 52, N4-(2,6-dimethylpyrimidin-4-yl)-N6-[2-methoxy-3-[1-(tetrahydropyran-4-ylmethyl)-1,2,4-triazol-3-yl]phenyl]pyrimidine-4,6-diamine] | 100 to 1000 | 0.2 to 1
5 | COc1c(Nc2cc(Nc3cc(C)nc(C)n3)ncn2)cccc1-c1ncn(CC2CC(F)(F)C2)n1 [Example 53, N6-[3-[1-[(3,3-difluorocyclobutyl)methyl]-1,2,4-triazol-3-yl]-2-methoxyphenyl]-N4-(2,6-dimethylpyrimidin-4-yl)pyrimidine-4,6-diamine] | 100 to 1000 | 0.2 to 1
6 | Cc1cc(Nc2cc(Nc3nccc(C)c3N(C)S(C)(=O)=O)ncn2)nc(C)n1 [Example 61, N-(2-((6-((2,6-dimethylpyrimidin-4-yl)amino)pyrimidin-4-yl)amino)-4-methylpyridin-3-yl)-N-methylmethanesulfonamide] | 100 to 1000 | 1 to 10
7 | COc1c(Nc2cc(Nc3cc(C)nc(C)n3)ncn2)ccc(C)c1-c1ncn(C)n1 [Example 63, 6-N-(2,6-dimethylpyrimidin-4-yl)-4-N-[2-methoxy-4-methyl-3-(1-methyl-1,2,4-triazol-3-yl)phenyl]pyrimidine-4,6-diamine] | 10 to 100 | 0.2 to 1
8 | COc1c(Nc2cc(Nc3ccc(F)cn3)ncn2)cccc1-c1ncn(C)n1 [Example 65, N4-(5-fluoro-2-pyridyl)-N6-[2-methoxy-3-(1-methyl-1,2,4-triazol-3-yl)phenyl]pyrimidine-4,6-diamine] | 10 to 100 | 0.2 to 1
9 | Cc1cc(Nc2cc(Nc3ccccc3N(C)S(=O)(=O)C(F)(F)F)ncn2)nc(C)n1 [Example 71, N-[2-[[6-[(2,6-dimethylpyrimidin-4-yl)amino]pyrimidin-4-yl]amino]phenyl]-1,1,1-trifluoro-N-methyl-methanesulfonamide] | 10 to 100 | < 0.2
10 | Cc1cc(Nc2cc(Nc3ccccc3C(C)S(C)(=O)=O)ncn2)nc(C)n1 (centres unmarked) [Example 72, N4-(2,6-dimethylpyrimidin-4-yl)-N6-[2-(1-methylsulfonylethyl)phenyl]pyrimidine-4,6-diamine] | 100 to 1000 | 1 to 10
11 | Cc1cc(Nc2cc(Nc3ccccc3S(=O)(=O)N3CCCCC3)ncn2)nc(C)n1 [Example 73, N6-(2,6-dimethylpyrimidin-4-yl)-N4-[2-(1-piperidylsulfonyl)phenyl]pyrimidine-4,6-diamine] | > 1000 | > 10

More lines, now with the values ahead:

Row | IC50 [1] [nM] | Kd [2] [nM] | SMILES
12 | 10 to 100 | 0.2 to 1 | COc1c(Nc2cc(Nc3cc(C)nc(C)n3)ncn2)cccc1-c1ncn(CC2CCCCO2)n1 (centres unmarked) [Example 47, N4-(2,6-dimethylpyrimidin-4-yl)-N6-[2-methoxy-3-[1-(tetrahydropyran-2-ylmethyl)-1,2,4-triazol-3-yl]phenyl]pyrimidine-4,6-diamine]
13 | > 1000 | > 10 | COc1c(Nc2cc(Nc3cc(C)nc(C)n3)ncn2)cccc1-c1nc(C)nn1C1COC1 [Example 48, N4-(2,6-dimethylpyrimidin-4-yl)-N6-[2-methoxy-3-[5-methyl-2-(oxetan-3-yl)-1,2,4-triazol-3-yl]phenyl]pyrimidine-4,6-diamine]
14 | 100 to 1000 | 1 to 10 | COc1c(Br)cccc1Nc1cc(Nc2cc(C)nc(C)n2)ncn1 [Example 50, N6-(3-bromo-2-methoxy-phenyl)-N4-(2,6-dimethylpyrimidin-4-yl)pyrimidine-4,6-diamine]
15 | 10 to 100 | < 0.2 | COc1c(Nc2cc(Nc3cc(C)nc(C)n3)ncn2)cccc1-c1ncn(CC2COC2)n1 [Example 51, N6-(2,6-dimethylpyrimidin-4-yl)-N4-[2-methoxy-3-[1-(oxetan-3-ylmethyl)-1,2,4-triazol-3-yl]phenyl]pyrimidine-4,6-diamine]
16 | 10 to 100 | 0.2 to 1 | COc1c(Nc2cc(Nc3cc(C)nc(C)n3)ncn2)cccc1-c1ncn(C2CC2(F)F)n1 (centres unmarked) [Example 55, N6-[3-[1-(2,2-difluorocyclopropyl)-1,2,4-triazol-3-yl]-2-methoxy-phenyl]-N4-(2,6-dimethylpyrimidin-4-yl)pyrimidine-4,6-diamine]
17 | 10 to 100 | < 0.2 | COc1c(Nc2cc(Nc3cc(C)nc(C)n3)ncn2)cccc1-c1noc(CN2CCOCC2)n1 [Example 62, N6-(2,6-dimethylpyrimidin-4-yl)-N4-[2-methoxy-3-[5-(morpholinomethyl)-1,2,4-oxadiazol-3-yl]phenyl]pyrimidine-4,6-diamine]
18 | 100 to 1000 | 0.2 to 1 | COc1c(Nc2cc(Nc3cc(C)nc(C)n3)ncn2)ccc(F)c1-c1ncn(C)n1 [Example 64, N4-(2,6-dimethylpyrimidin-4-yl)-N6-[4-fluoro-2-methoxy-3-(1-methyl-1,2,4-triazol-3-yl)phenyl]pyrimidine-4,6-diamine]
19 | 100 to 1000 | 0.2 to 1 | Cc1cc(Nc2cc(Nc3ccccc3CS(C)(=O)=O)ncn2)nc(C)n1 [Example 66, N4-(2,6-dimethylpyrimidin-4-yl)-N6-[2-(methylsulfonylmethyl)phenyl]pyrimidine-4,6-diamine]
20 | 10 to 100 | < 0.2 | Cc1cc(Nc2cc(Nc3ccc(Br)cc3N(C)S(C)(=O)=O)ncn2)nc(C)n1 [Example 67, N-[5-bromo-2-[[6-[(2,6-dimethylpyrimidin-4-yl)amino]pyrimidin-4-yl]amino]phenyl]-N-methyl-methanesulfonamide]
21 | 10 to 100 | < 0.2 | Cc1ccc(Nc2cc(Nc3cc(C)nc(C)n3)ncn2)c(N(C)S(C)(=O)=O)c1 [Example 69, N-[2-[[6-[(2,6-dimethylpyrimidin-4-yl)amino]pyrimidin-4-yl]amino]-5-methyl-phenyl]-N-methyl-methanesulfonamide]
22 | 10 to 100 | < 0.2 | Cc1cc(Nc2cc(Nc3cc(F)ccc3N(C)S(C)(=O)=O)ncn2)nc(C)n1 [Example 75, N-[2-[[6-[(2,6-dimethylpyrimidin-4-yl)amino]pyrimidin-4-yl]amino]-4-fluorophenyl]-N-methylmethanesulfonamide]
